Blank lines part the entries; values can stand above or below the compound they belong to.
Key:
hair follicle arginase = assay: In vitro assay for inhibitors of hair follicle arginase; assay type: biochemical; conditions: compound 10 μM, hamster flank organ hair follicle extract, 5 minutes at 37° C., ornithine formation by HPLC
Procedure: Extracts of hair follicles were obtained by excising and sonicating hair follicles obtained from hamster flank organs. The hair follicles from the hamster flank organ were excised and sonicated in a 0.01M Tris-buffered solution, pH 7.5. The sonicated extracts were centrifuged at 12,000×g, and the supernatant was used to measure arginase activity. Final reaction volumes were achieved by using 90 μl of the follicle supernatant, which was mixed with 100 μl of the Tris buffer (with or without the inhibitor), and 10 μl of 20 mM arginine incubated for 5 minutes at 37° C. The enzyme reaction was stopped by separating the enzyme from the substrate with a 10,000 molecular weight cut off filter. The product formed, ornithine, was separated from the substrate arginine using reverse phase HPLC methodology. An aliquot of the reaction was used to generate 20 μl of the filtrate which was reacted with 20 μl of O-pthalaldehyde (OPA) reagent. This reagent rapidly reacts with all primary amino acids to form fluorescent adducts that are separated on a C18 column (15 cm×3.9 mm). The 40 μl of derivatized sample is injected into the HPLC column and eluted with a stepwise gradient starting at 100% Buffer A (0.024M sodium acetate, 0.024M sodium phosphate, pH 4.0/methanol/tetrahydrofuran in a ratio of 81:15:4) and ending in a 50/50 mixture of Buffer A and Buffer B (methanol/water/tetrahydrofuran in a ratio of 75:15:10). A fluorescent detector was used to monitor the amino acid peaks as they eluted off the column.

[1] = test system: hair growth of hamster flank organs; assay: Golden Syrian hamster assay (flank organ hair mass after topical application); assay type: in vivo; conditions: for Treated (mg) hair mass: treated flank organ, mean ± SEM; for Percent Inhibition (mean ± SEM) of hair growth: vs vehicle treated side
From the text: Male intact Golden Syrian hamsters are considered acceptable models for human beard hair growth in that they display oval shaped flank organs, one of each side, each about 8 mm. in major diameter, which growth thick black and coarse hair similar to human beard hair. These organs produce hair in response to androgens in the hamster. To evaluate the effectiveness of a particular arginase inhibitor the flank organs of each of a group of hamsters are depilated by applying a thioglycolate based chemical depilatory (Surgex). To one organ of each animal 10 μl of vehicle alone once a day is applied, while to the other organ of each animal an equal amount of vehicle containing an arginase inhibitor is applied. After thirteen applications (one application per day for five days a week), the flank organs are shaved and the amount of recovered hair (hair mass) from each is weighed. Percent-reduction of hair growth is calculated by subtracting the hair mass (mg) value of the test compound treated side from the hair mass value of the vehicle treated side; the delta value obtained is then divided by the hair mass value of the vehicle treated side, and the resultant number is multiplied by 100.
The above-described assay will be referred to herein as the "Golden Syrian hamster" assay.

[2] = dose 10%, vehicle A, pH 6.5, 13 applications
[3] = dose 7.5%, vehicle A, pH 3.5, 13 applications
[4] = dose 10%, vehicle A, pH not given, 13 applications
[5] = dose 10%, vehicle B, pH 7.0, 13 applications
[6] = dose 10%, vehicle H2O, 13 applications

SMILES: CCN=C=NCCCN(C)C [1-Ethyl-3-(3-dimethylaminopropyl)-carbodiimide]
% Inhibition of hair follicle arginase (hair follicle arginase): 64% | Treated (mg) hair mass [1, 2]: 0.9 ± 0.9 mg | Percent Inhibition (mean ± SEM) of hair growth [1, 2]: 57 ± 5

% Inhibition of hair follicle arginase (hair follicle arginase): 64%
SMILES: Cc1ccc(S(=O)(=O)N[C@@H](CCCNC(=N)N)C(=O)O)cc1 [N-Tosyl-L-arginine]
Treated (mg) hair mass [1, 3]: 0.83 ± .13 mg | Percent Inhibition (mean ± SEM) of hair growth [1, 3]: 42 ± 13

% Inhibition of hair follicle arginase (hair follicle arginase): 98%
SMILES: N=C(NO)NCCC[C@H](N)C(=O)O [N^-G -Hydroxy-L-arginine]
Treated (mg) hair mass [1, 4]: 0.97 ± .19 mg | Percent Inhibition (mean ± SEM) of hair growth [1, 4]: 66 ± 6

% Inhibition of hair follicle arginase (hair follicle arginase): 50%
SMILES: CC(NC(CCCNC(=N)N)C(=O)O)C(=O)O (stereo not drawn) [Octopine]
Treated (mg) hair mass [1, 5]: 0.45 ± .07 mg | Percent Inhibition (mean ± SEM) of hair growth [1, 5]: 68 ± 6

% Inhibition of hair follicle arginase (hair follicle arginase): 27%
SMILES: CC(C)(N)C(=O)O [α-Aminoisobutyric acid]
Treated (mg) hair mass [1, 6]: 1.96 ± 2.1 mg | Percent Inhibition (mean ± SEM) of hair growth [1, 6]: 34 ± 9
